Measurements published in US20220193064A1, “MEDICAMENT FOR TREATING CANCER” (CHIOME BIOSCIENCE INC., priority 2019, published 2022).
Where two headings read alike, the source gives them in different places.

B1: HuBA-1-3D antibody: humanized anti-hDLK-1 antibody from WO2014/054820; H chain V region SEQ ID NO: 36, L chain V region SEQ ID NO: 46; GlymaxX produced (antibody, V domains shown)
VH: QVQLVQSGAEVKKPGASVKVSCKGSGYTFTDYAMHWVRQAPGQGLEWIGVISTYYGNTNYNQKFKGKATMTVDKSTSTAYMELRSLRSDDTAVYYCARGGLREYYYAMDYWGQGTMVTVSS
VL: DIVMTQSPDSLAVSLGERATINCKSSQSLLNSSNQKNYLAWYQQKPGQPPKLLVYFASTRESGVPDRFSGSGSGTDFTLTISSLQAEDVAVYYCQQHYSTPPTFGQGTKLEIK
modifications: GlymaxX glycoengineered
notes: humanized anti-hDLK-1 antibody from WO2014/054820; GlymaxX produced

Experiments:
[1] = tested on: Hep3B xenograft model; test: sensitivity to lenvatinib in Hep3B xenograft therapeutic model; assay type: in vivo, NOD/SCID mice; settings: Day 29; for tumor volume (mean±standard deviation): 5 times a week, N=8; for tumor volume ratio (T/C) relative to the vehicle group: P<0.05
Source text: (§1) Two cell lines (Hep3B and HepG2) derived from human hepatocellular carcinoma were compared for their sensitivity to lenvatinib mesylate (commercially available; hereinafter simply referred to as “lenvatinib” in this example) in xenograft therapeutic models.
In a Hep3B xenograft model, NOD/SCID mice were transplanted with the cells subcutaneously, and then divided into groups of 8 mice each at the time when the mean tumor volume exceeded 100 mm^3 (Day 14), and administration was started on the same day. The administration was conducted at a dose of 10 μL/g per mouse body weight via the oral route with an oral sonde, 5 times a week (administration for 5 days and withdrawal for 2 days) (12 times in total; Days 14, 15, 16, 17, 18, 21, 22, 23, 24, 25, 28 and 29) until the final day of the test. The tumor volume (mean±standard deviation) at 29 days after transplantation (Day 29; the final day of the test) was 1050.3±553.8 mm^3 in the group receiving vehicle (water for injection) (N=8), 400.9±160.9 mm^3 in the group receiving lenvatinib (3 mg/kg) (N=8), 200.2±133.3 mm^3 in the group receiving lenvatinib (10 mg/kg) (N=8), and 136.2±33.8 mm^3 in the group receiving lenvatinib (30 mg/kg) (N=8). The tumor volume ratio (T/C) relative to the vehicle group on Day 29 was 38.2% (P<0.05), 19.1% (P<0.05) and 13.0% (P<0.05), respectively, in the groups receiving lenvatinib (3, 10 and 30 mg/kg) (FIG. 3A).

[2] = tested on: Hep3B xenograft model; test: combined effect of lenvatinib and anti-hDLK-1 antibody on tumorigenesis inhibitory activity, Hep3B xenograft model; assay type: in vivo, NOD/ShiJic-scidJcl mice; settings: for tumor weight: tumors collected on final day of observation (Day 38)
Source text: Using a Hep3B xenograft model, lenvatinib mesylate and anti-hDLK-1 antibody were studied for their combined effect on tumorigenesis inhibitory activity.
(§2) The lenvatinib mesylate used here was commercially available (hereinafter simply referred to as “lenvatinib” in this example). The anti-hDLK-1 antibody used here was “HuBA-1-3D-1-A24G/T73K antibody” found in WO2014/054820 (hereinafter simply referred to as “HuBA-1-3D antibody” in this example), and DNA encoding this antibody protein was constructed in accordance with the procedures shown in WO2014/054820 (see the Example section in the specification), followed by production and preparation of this antibody protein in host cells using the GlymaxX® technology (ProBioGen AG; see https://www.probiogen.de/genetic-glyco-engineering-adcc-glymaxx.html). It should be noted that the HuBA-1-3D-1-A24G/T73K antibody used here has an H chain V region consisting of the amino acid sequence shown in SEQ ID NO: 36 and an L chain V region consisting of the amino acid sequence shown in SEQ ID NO: 46.
1×10^6 Hep3B cells were transplanted subcutaneously into the right flank of female NOD/ShiJic-scidJcl mice at 6 to 7 weeks of age (Day 0). At the stage where the mean tumor volume reached around 100 mm^3 (Day 14), these mice were divided into the following groups: the control group (N=8, 103.5±18.1 mm^3), the group receiving lenvatinib (3 mg/kg body weight) (N=8, 102.8±16.8 mm^3), the group receiving HuBA-1-3D antibody (1 mg/kg body weight) (N=8, 102.7±15.0 mm^3), and the group receiving both lenvatinib (3 mg/kg body weight) and HuBA-1-3D antibody (1 mg/kg body weight) (N=8, 102.5±12.5 mm^3) (hereinafter referred to as the group receiving lenvatinib+HuBA-1-3D antibody). For a period of 12 days starting from Day 14, HuBA-1-3D antibody was administered twice a week (4 times in total; Days 14, 18, 22 and 25), and lenvatinib was administered 5 times a week (administration for 5 days and withdrawal for 2 days) (10 times in total; Days 14, 15, 16, 17, 18, 21, 22, 23, 24 and 25). The tumor volume was measured at a frequency of twice a week, and an animal whose tumor volume reached 1500 mm^3 was excluded from observation.

[3] = tested on: HepG2 xenograft model; test: sensitivity to lenvatinib in HepG2 xenograft therapeutic model; assay type: in vivo, NOD/SCID mice; settings: Day 28; for tumor volume (mean±standard deviation): 5 times a week, N=8; for tumor volume ratio (T/C) relative to the vehicle group: P<0.05
Source text: as §1
NOD/SCID mice were transplanted with the cells subcutaneously, and then divided into groups of 8 mice each at the time when the mean tumor volume exceeded 100 mm^3 (Day 10), and administration was started on the same day. The administration was conducted at a dose of 10 μL/g per mouse body weight via the oral route with an oral sonde, 5 times a week (administration for 5 days and withdrawal for 2 days) (14 times in total; Days 10, 11, 12, 13, 14, 17, 18, 19, 20, 21, 24, 25, 26 and 27) until the day before the final day of the test. The tumor volume (mean±standard deviation) at 28 days after transplantation (Day 28; the final day of the test) was 1163.0±205.1 mm^3 in the group receiving vehicle (water for injection) (N=8), 892.5±220.7 mm^3 in the group receiving lenvatinib (3 mg/kg) (N=8), 506.8±215.7 mm^3 in the group receiving lenvatinib (10 mg/kg) (N=8), and 380.0±146.8 mm^3 in the group receiving lenvatinib (30 mg/kg) (N=8). The tumor volume ratio (T/C) relative to the vehicle group on Day 28 was 76.7% (P<0.05), 43.6% (P<0.05) and 32.7% (P<0.05), respectively, in the groups receiving lenvatinib (3, 10 and 30 mg/kg) (FIG. 3B).

[4] = tested on: unresectable hepatocellular carcinoma; settings: cited from earlier work
[5] = tested on: HepG2 xenograft model; test: combined effect of lenvatinib and anti-hDLK-1 antibody on tumorigenesis inhibitory activity, HepG2 xenograft model; assay type: in vivo, NOD/ShiJic-scidJcl mice
Source text: Using a HepG2 xenograft model, lenvatinib mesylate and anti-hDLK-1 antibody were studied for their combined effect on tumorigenesis inhibitory activity.
as §2
5×10^6 HepG2 cells were transplanted subcutaneously into the right flank of female NOD/ShiJic-scidJcl mice at 7 weeks of age (Day 0). At the stage where the mean tumor volume reached around 100 mm^3 (Day 10), these mice were divided into the following groups: the control group (N=8, 118.4±15 6 mm^3), the group receiving lenvatinib (10 mg/kg body weight) (N=8, 118.8±15.2 mm^3), the group receiving HuBA-1-3D antibody (1 mg/kg body weight) (N=8, 119.8±12.9 mm^3), and the group receiving both lenvatinib (10 mg/kg body weight) and HuBA-1-3D antibody (1 mg/kg body weight) (N=8, 119.7±13.4 mm^3) (hereinafter referred to as the group receiving lenvatinib+HuBA-1-3D antibody). For a period of 12 days starting from Day 10, HuBA-1-3D antibody was administered twice a week (4 times in total; Days 10, 13, 17 and 21), and lenvatinib was administered 5 times a week (administration for 5 days and withdrawal for 2 days) (10 times in total; Days 10, 11, 12, 13, 14, 17, 18, 19, 20 and 21). The tumor volume was measured at a frequency of twice a week, and an animal whose tumor volume reached 1500 mm^3 was excluded from observation.

[6] = Day 25 (final day of administration), lenvatinib 3 mg/kg 5 times a week, HuBA-1-3D antibody 1 mg/kg twice a week, N=8
[7] = Day 31 (6 days after completion of administration), lenvatinib 3 mg/kg, HuBA-1-3D antibody 1 mg/kg
[8] = Day 38 (13 days after completion of administration), lenvatinib 3 mg/kg, HuBA-1-3D antibody 1 mg/kg
[9] = lenvatinib 3 mg/kg, HuBA-1-3D antibody 1 mg/kg
[10] = primary therapeutic agent, unresectable hepatocellular carcinoma, whole treatment group
[11] = Day 21 (final day of administration), lenvatinib 10 mg/kg 5 times a week, HuBA-1-3D antibody 1 mg/kg twice a week, N=8
[12] = Day 31 (10 days after completion of administration), lenvatinib 10 mg/kg, HuBA-1-3D antibody 1 mg/kg, N=8
[13] = Day 34 (13 days after completion of administration), lenvatinib 10 mg/kg, HuBA-1-3D antibody 1 mg/kg

Molecule | tumor volume [2, 6] [mm^3] | tumor volume [2, 7] [mm^3] | tumor volume [2, 8] [mm^3] | tumor weight [2, 9] [mg] | efficacy [4, 10] [%] | tumor volume [5, 11] [mm^3] | tumor volume [5, 12] [mm^3] | tumor volume [5, 13] [mm^3] | also measured
COc1cc2nccc(Oc3ccc(NC(=O)NC4CC4)c(Cl)c3)c2cc1C(N)=O [lenvatinib, 4-[3-chloro-4-(cyclopropylcarbamoylamino)phenoxy]-7-methoxy-quinoline-6-carboxamide] | 268.1±175.7 | 572.2±456.0 | 1148.5±591.0 | 841.1 ± 515.8 | 40.6 | 326.2±188.7 | 817.4±583.4 | 796.2±461.7 | tumor volume (mean±standard deviation) ([1]; lenvatinib 3 mg/kg oral): 400.9±160.9 mm^3; tumor volume ratio (T/C) relative to the vehicle group ([1]; lenvatinib 3 mg/kg): 38.2%; tumor volume (mean±standard deviation) ([1]; lenvatinib 10 mg/kg oral): 200.2±133.3 mm^3; tumor volume ratio (T/C) relative to the vehicle group ([1]; lenvatinib 10 mg/kg): 19.1%; tumor volume (mean±standard deviation) ([1]; lenvatinib 30 mg/kg oral): 136.2±33.8 mm^3; tumor volume ratio (T/C) relative to the vehicle group ([1]; lenvatinib 30 mg/kg): 13.0%; tumor volume (mean±standard deviation) ([3]; lenvatinib 3 mg/kg oral): 892.5±220.7 mm^3; tumor volume ratio (T/C) relative to the vehicle group ([3]; lenvatinib 3 mg/kg): 76.7%; tumor volume (mean±standard deviation) ([3]; lenvatinib 10 mg/kg oral): 506.8±215.7 mm^3; tumor volume ratio (T/C) relative to the vehicle group ([3]; lenvatinib 10 mg/kg): 43.6%; tumor volume (mean±standard deviation) ([3]; lenvatinib 30 mg/kg oral): 380.0±146.8 mm^3; tumor volume ratio (T/C) relative to the vehicle group ([3]; lenvatinib 30 mg/kg): 32.7%; efficacy ([4]; Japanese population (of 81 patients) assigned to the lenvatinib group): 46.9%; animals sacrificed whose tumor volume exceeded 1500 mm^3 ([5]; Day 31, lenvatinib 10 mg/kg): one of the 8 animals
CNC(=O)c1cc(Oc2ccc(NC(=O)Nc3ccc(Cl)c(C(F)(F)F)c3)cc2)ccn1 [sorafenib] |  |  |  |  | 12.4 |  |  |  | 
B1 | 144.6±111.2 | 92.9±79.3 | 402.3±364.4 | 392.3 ± 412.9 |  | 116.4±42.4 | 394.0±169.8 | 584.1±241.9 | 
